Measurements from patent US20240261440A1, “COMPOSITIONS, METHODS AND USES FOR TREATING CYSTIC FIBROSIS AND RELATED DISORDERS” (The Board of Regents of The University of Texas System, priority 0001, published 2024).

Test system: C57BL/6 mice
Assay: In vivo Luc mRNA delivery (IVIS luminescence imaging)
Set-up: species or system mouse
Conditions: 0.1 mg kg-1 Luc mRNA, i.v., 6h; 20% to 50% cationic lipid
Method: C57BL/6 mice with weight at around 20 g were i.v. injected with various Luc mRNA formulations (0.1 mg kg^−1 of Luc mRNA, n=3 per group). After 6 hours, these mice were injected with D-Luciferin (150 mg kg^−1, intraperitoneal) and imaged immediately using an IVIS Lumina system (Perkin Elmer). Afterwards, these mice were killed, and tissues were excised for ex vivo imaging using IVIS Lumina system.

For `CCCCCCCC/C=C\CCCCCCCC(=O)OCC(C[N+](C)(C)C)OC(=O)CCCCCCC/C=C\CCCCCCCC` (stereo not shown) [DOTAP, 1,2-dioleoyl-3-trimethylammonium-propane], the “luciferase expression in mouse lungs, permanently cationic lipid screen in mDLNP-2” value was “higher luminescence activity than others”.
